The test system of experiment [1] is platelet activation marker CD62P (P-selectin) on platelets. Briefly: Flow cytometric analysis of CD62P expression in diluted blood stimulated with a platelet stimulant and then fixed. In kind it is cell-based, human. The note with it: then fixed; for percentage of gated cells in P3 (% parent), CD62P: gate P3 set at 1% with IgG control, CD61-positive platelets; for median fluorescence of CD62P (P1 AND P2): whole population of CD61 positive cells, IgG control 2. Background: A flow cytometer gives signals particle by particle.
Experimental: The inventors then set out to test the efficacy of the platelet stabilising composition by determining the expression levels of the platelet activation marker, CD62P (ie P-selectin), using flow cytometry.
Initially, an experiment was carried out in order to measure the level of expression of the platelet activation marker, CD62P, by flow cytometry in an IgG control sample. […] Platelets were gated in both P1 (top, centre in FIG. 1) and P2 (top, right in FIG. 1) in plots of a platelet identifier antibody, CD61-PerCP, against both side scatter (SSC) and forward scatter (FSC).
Approximately 3,000 CD61-positive platelet events were recorded. The CD61-positive cells were then drawn on a dot plot of CD62P against SSC (centre of FIG. 1). A frequency histogram of CD62P fluorescence against cell count was then used to quantify the percentage of cells from the parent population that were present in an interval gate P3 (bottom, left of FIG. 1). […] The gate was set at 1% using the appropriate IgG control sample and recorded in the statistics box (bottom right of FIG. 1). The median fluorescence of CD62P was also recorded for the whole population of CD61 positive cells (P1 AND P2).
Flow cytometric analysis was carried out to determine CD62P expression in an unstimulated sample of blood diluted with saline alone and then fixed.
Flow cytometric analysis was carried out to determine CD62P expression in a diluted sample of blood stimulated with adenosine diphosphate (ADP) and then fixed.
Flow cytometric analysis was carried out to determine CD62P expression in a diluted sample of blood stimulated with the thromboxane mimetic U46619 and then fixed.
Flow cytometric analysis was carried out to determine CD62P expression in a diluted sample of blood stimulated with thrombin receptor activating peptide (TRAP) and then fixed.

Experiment [2] deals with platelet activation marker CD62P. The note with it: both groups where aspirin was added (healthy volunteers, patients on aspirin).
Experimental: Blood samples were obtained from (a) a group of healthy volunteers who were not being treated with aspirin, and (b) a group of patients who were on aspirin therapy. A CD62P stimulant combination of arachidonic acid and epinephrine, or arachidonic acid and epinephrine, in the presence of aspirin (as a control), were added to each blood sample for 4 minutes, followed by the stabilisation composition of the invention.

As to `Nc1ncnc2c1ncn2[C@@H]1O[C@H](COP(=O)(O)OP(=O)(O)O)[C@@H](O)[C@H]1O` [ADP, adenosine diphosphate], in experiment [1], the “percentage of gated cells in P3 (% parent), CD62P” value (shortened to “percentage … (% parent), CD62P”) is reported as 70.8% and the “median fluorescence of CD62P (P1 AND P2)” value is 365.

Consider `CCCCC[C@H](O)/C=C/[C@@H]1[C@@H](C/C=C\CCCC(=O)O)[C@H]2CO[C@@H]1C2` [U46619], for which, in experiment [1], the “percentage … (% parent), CD62P” value was determined as 95.3% and the “median fluorescence of CD62P (P1 AND P2)” value came out at 1191.

On to `CC(=O)Oc1ccccc1C(=O)O` [aspirin], for which the “inhibition of CD62P expression” value in experiment [2] is reported as “completely inhibited”.

For the compound “thrombin receptor activating peptide [TRAP]”, in experiment [1], the “percentage … (% parent), CD62P” value was 97.5% and the “median fluorescence of CD62P (P1 AND P2)” value is 1646.
